Reference: ChEMBL document CHEMBL1649386, “Synthesis and in vitro cytotoxic evaluation of some thiazolylbenzimidazole derivatives” (Eur J Med Chem, 2011)

Assays:
[1] = tested on: A549 (Homo sapiens); test: Cytotoxicity against human A549 cells after 72 hrs by MTT assay; conditions: A549, 72 h
[2] = tested on: SMMC-7721; test: Cytotoxicity against human SMMC7721 cells after 72 hrs by MTT assay; conditions: SMMC-7721, 72 h

Row | SMILES | IC50 [1] | IC50 [2]
1 | Cc1nc(-c2nc3ccccc3n2Cc2ccccc2)sc1C(=O)N1CCN(C)CC1 | > 20 µM | 20 µM
2 | CCN(CC)CCNC(=O)c1sc(-c2nc3ccccc3n2Cc2ccccc2)nc1C | 2.43 µM | 1.14 µM
3 | CCOC(=O)c1sc(-c2nc3ccccc3n2C(C)C)nc1C | > 20 µM | > 20 µM
4 | CCOC(=O)c1sc(-c2nc3ccccc3n2CC)nc1C | > 20 µM | 9.85 µM
5 | CCOC(=O)c1csc(-c2nc3ccccc3n2CC)n1 | > 20 µM | > 20 µM
6 | Cc1nc(-c2nc3ccccc3n2Cc2ccccc2)sc1C(=O)NC(C)C | 6.64 µM | 6.9 µM
7 | Cc1nc(-c2nc3ccccc3n2Cc2ccccc2)sc1C(=O)O | > 20 µM | 15.3 µM
8 | Cc1nc(-c2nc3ccccc3n2Cc2ccccc2)sc1C(=O)Nc1ccccc1 | 3.96 µM | 3.7 µM
9 | Cc1nc(-c2nc3ccccc3n2Cc2ccccc2)sc1C(=O)N1CCOCC1 | > 20 µM | > 20 µM
10 | CCOC(=O)c1csc(-c2nc3ccccc3n2Cc2ccccc2)n1 | > 20 µM | 13 µM
11 | CCOC(=O)c1sc(-c2nc3ccccc3n2Cc2ccccc2)nc1C | > 20 µM | 2.78 µM
12 | Cc1nc(-c2nc3ccccc3n2Cc2ccccc2)sc1C(=O)NC1CCCCC1 | 5.23 µM | 12.4 µM
13 | CCOC(=O)c1sc(-c2nc3ccccc3n2C)nc1C | > 20 µM | 13.9 µM
14 | CCOC(=O)Cc1csc(-c2nc3ccccc3n2C)n1 | > 20 µM | > 20 µM
15 | CC(=O)O[C@H]1C(=O)[C@@]2(C)[C@H]([C@H](OC(=O)c3ccccc3)[C@]3(O)C[C@H](OC(=O)[C@H](O)[C@@H](NC(=O)c4ccccc4)c4ccccc4)C(C)=C1C3(C)C)[C@]1(OC(C)=O)CO[C@@H]1C[C@@H]2O [PACLITAXEL] |  | 1.42 µM
16 | Cc1nc(-c2nc3ccccc3n2Cc2ccccc2)sc1C(=O)N1CCCCC1 | > 20 µM | > 20 µM
17 | CCOC(=O)c1csc(-c2nc3ccccc3n2C)n1 | > 20 µM | 16.5 µM
